Data published in patent publication US10035799B2, “COMT inhibiting methods and compositions” (Lieber Institute for Brain Development, priority 2015, dated 2018).

Target: T1, catechol-O-methyltransferase (COMT) (Homo sapiens, UniProt P21964)
T1 construct: M51A variant) was expressed in HEK 293F cells
T1 sequence (P21964 52-271 limits assumed): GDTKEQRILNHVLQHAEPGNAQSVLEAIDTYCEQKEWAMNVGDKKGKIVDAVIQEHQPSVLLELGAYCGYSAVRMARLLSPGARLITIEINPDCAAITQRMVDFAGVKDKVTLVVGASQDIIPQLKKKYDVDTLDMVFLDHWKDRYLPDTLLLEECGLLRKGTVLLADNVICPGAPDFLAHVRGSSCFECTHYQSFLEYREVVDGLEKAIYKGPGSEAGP
Assay: COMT inhibition assay (HTRF, production of S-adenosyl homocysteine)
Type: biochemical
Details: recombinant human COMT, HTRF SAH production; MB-COMT or S-COMT not stated for Table 1
Experimental: The ability of compounds to inhibit the activity of catechol-O-methyltransferase (COMT) was determined by a homogenous time-resolved fluorescent (HTRF) assay (Lina et al, 2012; kit from CisBio, Codolet, France). This assay measures the production of S-adenosyl homocysteine (SAH) from the methyl donor S-adenosyl methionine. Recombinant human membrane bound COMT (MB-COMT; M51A variant) was expressed in HEK 293F cells using 293Fectin (Life Technologies, Gent, Belgium) and membranes prepared. The membranes were re-suspended in buffer (20 mM Tris/HCl pH 7; 10 mM glycerol; 2 mM MgCl2; 10 mM NaCl), aliquoted and stored at −80° C. Recombinant human soluble COMT(S-COMT), Va1158 variant and a hexa-His tag on the N-terminus, was purified using Ni-NTA chromatography, the His tag removed and stored in buffer as above.
For the human MB-COMT assay, membranes (62 ng/well) were incubated with SAM (20 μM final, CisBio) and dopamine (1.5 μM final; Sigma H8502, Diegem, Belgium) in the presence or absence of varying concentrations (typically 10 concentrations ranging from 10 μM to 0.1 nM) of compound for 40 min at 37° C. in 384-well microtitre plates (10 μl per well final volume). The reaction was terminated by the addition of acylation buffer and the amount of SAH produced determined according to manufacturer's instructions. Specific inhibition as that inhibited by a high concentration of tolcapone (10 μM; synthesised at UCB) and all experiments were validated using a control curve to tolcapone.
The human S-COMT assay was performed as above except that 0.15 ng enzyme/well was incubated with SAM (20 μM final) and dopamine (100 μM final) for 15 min at 37° C. and SAH production determined.
HTRF readings were performed using a Perkin Elmer Envision and results expressed as concentration of SAH produced using a standard curve. Results were analysed using non-linear regression to the 4-parameter logistic equation and pIC50 (−log 10 concentration of drug which inhibits enzyme activity/SAH production by 50%) determined.

| Compound | Activity range (pIC50, COMT inhibition) |
| --- | --- |
| O=S(=O)(c1cccnc1)c1ccc(O)c2ncccc12 [Example 19, 5-(3-pyridylsulfonyl)quinolin-8-ol] | ++ (a pIC50 of from about great than 6 to 7) |
| Cc1ccc(S(=O)(=O)c2cc(I)c(O)c3ncccc23)cc1 [Example 107, 7-iodo-5-(p-tolylsulfonyl)quinolin-8-ol] | ++ (a pIC50 of from about great than 6 to 7) |
| CC(C)(C)OC(=O)N1CCN(S(=O)(=O)c2ccc(O)c3ncccc23)CC1 [Example 103, tert-butyl 4-[(8-hydroxy-5-quinolyl)sulfonyl]piperazine-1-carboxylate] | ++ (a pIC50 of from about great than 6 to 7) |
| Cc1ccc(CNS(=O)(=O)c2ccc(O)c3ncccc23)cc1 [Example 44, 8-hydroxy-N-(4-methylbenzyl)quinoline-5-sulfonamide] | ++ (a pIC50 of from about great than 6 to 7) |
| CN(CCc1ccccc1)S(=O)(=O)c1ccc(O)c2ncccc12 [Example 48, 8-hydroxy-N-methyl-N-phenethyl-quinoline-5-sulfonamide] | +++ (a pIC50 of above about 7) |
| O=S(=O)(c1ccc(O)c2ncccc12)C1CCCC1 [Example 31, 5-cyclopentylsulfonylquinolin-8-ol] | +++ (a pIC50 of above about 7) |
| O=S(=O)(c1cc(F)c(O)c2ncccc12)N1CCN(Cc2ccc(F)cc2)CC1 [Example 122, 7-fluoro-5-[4-[(4-fluorophenyl)methyl]piperazin-1-yl]sulfonyl-quinolin-8-ol] | ++ (a pIC50 of from about great than 6 to 7) |
| CC1CNCCN1S(=O)(=O)c1ccc(O)c2ncccc12 (stereo not shown) [Example 106, 5-(2-methylpiperazin-1-yl)sulfonylquinolin-8-ol] | + (a pIC50 of from about 4.5 to 6) |
| Cc1ccc(S(=O)(=O)c2ccc(O)c3ncccc23)cc1 [Example 1, 5-tosylquinolin-8-ol] | +++ (a pIC50 of above about 7) |
| O=S(=O)(c1ccc(O)c2ncccc12)N1C[C@@H](F)[C@H](F)C1 [Example 70, 5-[(3R,4R)-3,4-difluoropyrrolidin-1-yl]sulfonylquinolin-8-ol] | +++ (a pIC50 of above about 7) |
| O=S(=O)(c1cccc(-c2ccc(F)c(Cl)c2)c1)c1ccc(O)c2ncccc12 [Example 24, 5-[3-(3-chloro-4-fluoro-phenyl)phenyl]sulfonylquinolin-8-ol] | +++ (a pIC50 of above about 7) |
| Cc1cc(S(=O)(=O)N2C[C@@H](F)[C@H](F)C2)c2cccnc2c1O [Example 116, 5-[(3R,4R)-3,4-difluoropyrrolidin-1-yl]sulfonyl-7-methyl-quinolin-8-ol] | + (a pIC50 of from about 4.5 to 6) |
| O=S(=O)(c1ccc(O)c2ncccc12)N1CCCC1C1CCCCC1 (stereo not shown) [Example 76, 5-(2-cyclohexylpyrrolidin-1-yl)sulfonylquinolin-8-ol] | +++ (a pIC50 of above about 7) |
| O=S(=O)(c1ccc(O)c2ncccc12)N1CCCC1 [Example 59, 5-pyrrolidin-1-ylsulfonylquinolin-8-ol] | +++ (a pIC50 of above about 7) |
| CN(Cc1ccc(C(F)(F)F)cc1)S(=O)(=O)c1ccc(O)c2ncccc12 [Example 65, N-[(4-(trifluoromethyl)phenyl)methyl]-8-hydroxy-N-methyl-quinoline-5-sulfonamide] | +++ (a pIC50 of above about 7) |
| COc1cccc(CN(C)S(=O)(=O)c2ccc(O)c3ncccc23)c1 [Example 42, 8-hydroxy-N-[(3-methoxyphenyl)methyl]-N-methyl-quinoline-5-sulfonamide] | +++ (a pIC50 of above about 7) |
